System: BSS1-GFP
Test: Fluorescence microscopy of punctate BSS1-GFP in transgenic seedlings
Type: in vivo, Arabidopsis thaliana
Conditions: root cells of BSS1-GFP plants treated with 50 μM BFA for 1 hour
Procedure: FIGS. 5C to 5E show analysis of BSS1-GFP puncta signal intensities upon treatment with Brz and BL. Seven-day-old BSS1-GFP transgenic seedlings were treated for 3 hours with 3 μM Brz (Brz), an equal volume of DMSO (Mock), or 100 μM BL (BL). […] The results are represented as the mean±s.d. The signal intensity was measured using ImageJ software. […]
The plants that were transformed with the CaMV35S-BSS1-GFP construct BSS1(-GFP)-OX and the CaMV35S-BIL1-GFP construct BIL1-GFP-OX were observed via confocal laser scanning microscopy with a BX60 fluorescence microscope (Olympus) equipped with a Model CSU10 confocal scanner (Yokogawa Electric) and LSM700 (Zeiss).
FM4-64 (Molecular Probes) dissolved in water was applied to Arabidopsis plants at a final concentration of 4 μM for 3 minutes. The plants were washed with water to remove the excessive amount of the stain and observed. A DMSO-base stock solution of Brefeldin A (BFA) (Sigma) was applied to the cells at a final concentration of 50 μM for 1 hour.
The images were analyzed using ImageJ software. To measure the ratio of the nuclear and cytosolic signals of BIL1-GFP for each cell, the signal intensities in the nucleus and cytosol were calculated from the mean of the intensity in each area. The nuclear to cytosolic signal ratio was then calculated for each cell. The average nuclear/cytosolic signal ratio and standard error were calculated from measurements of at least 54 cells from each line (FIG. 9B). Line scan measurements from the vacuole to the nucleus through the cytosol were performed, and representative plot profiles of sample measurements are presented in FIG. 5C.

## C[C@H]1CCC/C=C/[C@@H]2C[C@H](O)C[C@H]2[C@H](O)/C=C/C(=O)O1 [BFA, Brefeldin A]
  formation of punctate BSS1: not inhibited

Source: patent publication US10323254B2, “Method for regulating plant growth” (RIKEN, priority 2015, dated 2019)
